From patent US20240398784A1, “C-LINKED ISOQUINOLINE AMIDES AS LRRK2 INHIBITORS, PHARMACEUTICAL COMPOSITIONS, AND USES THEREOF” (Merck Sharp & Dohme LLC, priority 2021, published 2024)

molecular target: LRRK2 G2019S (Homo sapiens, UniProt Q5S007, G2019S); assay: LRRK2 G2019S Km ATP LanthaScreen assay; format: biochemical; details: read-out: LRRK2 pIC50 (converted)
Sequence (Q5S007 whole entry G2019S): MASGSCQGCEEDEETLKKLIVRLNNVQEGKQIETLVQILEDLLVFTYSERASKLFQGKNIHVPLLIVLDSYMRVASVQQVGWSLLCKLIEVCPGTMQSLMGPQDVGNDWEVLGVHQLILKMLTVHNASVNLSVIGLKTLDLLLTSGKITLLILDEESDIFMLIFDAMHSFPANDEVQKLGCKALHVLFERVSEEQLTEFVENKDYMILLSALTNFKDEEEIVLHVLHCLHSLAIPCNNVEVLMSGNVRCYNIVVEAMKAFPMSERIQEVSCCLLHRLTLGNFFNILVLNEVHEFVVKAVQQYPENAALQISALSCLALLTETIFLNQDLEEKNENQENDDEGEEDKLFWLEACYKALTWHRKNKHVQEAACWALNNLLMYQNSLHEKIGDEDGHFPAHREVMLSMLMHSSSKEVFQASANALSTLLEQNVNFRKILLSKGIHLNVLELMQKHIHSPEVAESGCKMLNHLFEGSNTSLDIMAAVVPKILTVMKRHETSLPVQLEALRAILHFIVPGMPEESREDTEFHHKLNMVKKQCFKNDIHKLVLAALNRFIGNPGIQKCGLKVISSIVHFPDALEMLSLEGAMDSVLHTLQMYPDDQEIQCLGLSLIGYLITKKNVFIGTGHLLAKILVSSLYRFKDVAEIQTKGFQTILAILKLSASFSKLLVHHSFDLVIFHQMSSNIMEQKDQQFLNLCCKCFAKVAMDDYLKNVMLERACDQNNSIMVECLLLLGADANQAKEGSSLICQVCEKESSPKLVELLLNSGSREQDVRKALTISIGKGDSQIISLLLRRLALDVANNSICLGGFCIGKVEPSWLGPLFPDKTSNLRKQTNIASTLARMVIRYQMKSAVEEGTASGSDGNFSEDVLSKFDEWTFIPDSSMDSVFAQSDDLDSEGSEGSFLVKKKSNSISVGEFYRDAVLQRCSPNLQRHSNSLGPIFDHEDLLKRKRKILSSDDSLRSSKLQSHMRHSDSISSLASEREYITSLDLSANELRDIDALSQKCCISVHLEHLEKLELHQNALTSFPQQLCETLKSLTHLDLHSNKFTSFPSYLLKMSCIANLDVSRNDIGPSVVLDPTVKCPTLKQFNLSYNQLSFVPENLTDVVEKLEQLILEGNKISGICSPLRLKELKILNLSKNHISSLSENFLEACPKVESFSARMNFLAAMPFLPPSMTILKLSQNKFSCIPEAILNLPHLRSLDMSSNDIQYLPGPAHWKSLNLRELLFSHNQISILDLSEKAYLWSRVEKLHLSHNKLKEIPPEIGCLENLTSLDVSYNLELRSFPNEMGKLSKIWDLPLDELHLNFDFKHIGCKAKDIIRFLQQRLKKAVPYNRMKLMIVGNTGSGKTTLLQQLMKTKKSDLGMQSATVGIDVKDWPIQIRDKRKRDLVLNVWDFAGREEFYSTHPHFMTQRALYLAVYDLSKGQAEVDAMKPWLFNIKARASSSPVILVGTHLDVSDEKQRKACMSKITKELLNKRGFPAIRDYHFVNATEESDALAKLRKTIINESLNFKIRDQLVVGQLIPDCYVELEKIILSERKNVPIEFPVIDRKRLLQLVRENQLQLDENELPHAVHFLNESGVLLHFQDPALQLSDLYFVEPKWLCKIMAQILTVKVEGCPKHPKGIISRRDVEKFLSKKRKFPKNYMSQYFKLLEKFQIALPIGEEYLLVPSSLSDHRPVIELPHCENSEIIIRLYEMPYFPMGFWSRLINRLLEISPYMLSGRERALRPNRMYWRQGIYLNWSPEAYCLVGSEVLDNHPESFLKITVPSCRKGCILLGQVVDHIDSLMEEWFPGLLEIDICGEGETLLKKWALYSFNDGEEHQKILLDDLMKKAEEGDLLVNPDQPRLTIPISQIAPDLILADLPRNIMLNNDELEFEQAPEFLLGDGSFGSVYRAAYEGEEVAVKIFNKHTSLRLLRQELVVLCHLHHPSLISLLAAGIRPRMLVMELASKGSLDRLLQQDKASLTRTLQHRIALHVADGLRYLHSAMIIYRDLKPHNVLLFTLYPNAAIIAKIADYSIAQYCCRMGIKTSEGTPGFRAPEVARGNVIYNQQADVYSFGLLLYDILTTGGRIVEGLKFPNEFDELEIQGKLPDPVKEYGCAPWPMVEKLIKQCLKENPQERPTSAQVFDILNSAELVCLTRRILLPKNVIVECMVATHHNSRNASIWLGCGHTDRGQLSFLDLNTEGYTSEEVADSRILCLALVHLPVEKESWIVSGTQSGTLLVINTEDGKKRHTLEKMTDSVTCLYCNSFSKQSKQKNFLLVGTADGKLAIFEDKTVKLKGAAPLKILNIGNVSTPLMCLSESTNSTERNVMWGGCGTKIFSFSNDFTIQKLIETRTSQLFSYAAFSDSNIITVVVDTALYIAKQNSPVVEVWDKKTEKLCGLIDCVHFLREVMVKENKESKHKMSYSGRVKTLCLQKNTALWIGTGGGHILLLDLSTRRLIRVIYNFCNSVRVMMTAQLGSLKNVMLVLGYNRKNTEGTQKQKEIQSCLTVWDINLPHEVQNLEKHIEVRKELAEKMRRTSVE

| SMILES | IC50 |
| --- | --- |
| CC1(C)CC(C(=O)Nc2cc3cc(C4CCN(C5(C)COCC5O)CC4)c(Cl)cc3cn2)CCO1 (stereo not drawn) [Ex-2.34] | 1.7 nM |
| CC1(N2CCC(c3cc4cc(NC(=O)C5CC5C5CCCCO5)ncc4cc3Cl)CC2)COCC1O (single isomer, unassigned) [Ex-4.71, N-(7-chloro-6-(1-(4-hydroxy-3-methyltetrahydrofuran-3-yl)piperidin-4-yl)isoquinolin-3-yl)-2-(tetrahydro-2H-pyran-2-yl)cyclopropane-1-carboxamide] | 0.0813 nM |
| CC1(N2CCC(c3cc4cc(NC(=O)C5CC5C5CCCO5)ncc4cc3Cl)CC2)COCC1O (single isomer, unassigned) [Ex-4.69, N-(7-chloro-6-(1-(4-hydroxy-3-methyltetrahydrofuran-3-yl)piperidin-4-yl)isoquinolin-3-yl)-2-(tetrahydrofuran-2-yl)cyclopropane-1-carboxamide] | 0.0813 nM |
| CC1(N2CCC(c3cc4cc(NC(=O)C5CCC(C(F)(F)F)OC5)ncc4cc3Cl)CC2)COCC1O (stereo not drawn) [Ex-2.59] | 5.13 nM |
| CC1(N2CCC(c3cc4cc(NC(=O)C5CC5c5ccco5)ncc4cc3Cl)CC2)COCC1O (single isomer, unassigned) [Ex-4.66, N-(7-chloro-6-(1-(4-hydroxy-3-methyltetrahydrofuran-3-yl)piperidin-4-yl)isoquinolin-3-yl)-2-(furan-2-yl)cyclopropane-1-carboxamide] | 0.0813 nM |
| CC1(N2CCC(c3cc4cc(NC(=O)C5CC56CC6)ncc4cc3Cl)CC2)COCC1O (single isomer, unassigned) [Ex-4.6, N-(7-chloro-6-(1-(4-hydroxy-3-methyltetrahydrofuran-3-yl)piperidin-4-yl)isoquinolin-3-yl)spiro[2.2]pentane-1-carboxamide] | 0.148 nM |
| CC(C(=O)Nc1cc2cc(C3CCN(C4(C)COCC4O)CC3)c(Cl)cc2cn1)c1cnn(C)c1 (stereo not drawn) [Ex-2.107] | 0.661 nM |
| CC1(N2CCC(c3cc4cc(NC(=O)Cn5ccc(C(F)(F)F)n5)ncc4cc3Cl)CC2)COCC1O (stereo not drawn) [Ex-3.10] | 1 nM |
| Cn1cc(C(=O)Nc2cc3cc(C4CCN(C5COC5)CC4)c(Cl)cc3cn2)cn1 [Ex-1.36, N-(7-chloro-6-(1-(oxetan-3-yl)piperidin-4-yl)isoquinolin-3-yl)-1-methyl-1H-pyrazole-4-carboxamide] | 5.89 nM |
| N#CC1(c2ccc3cnc(NC(=O)C4CC(OC(F)F)C4)cc3c2)CC12CC2 (single isomer, unassigned) [Ex-2.7] | 10.5 nM |
| Cc1cc2cnc(NC(=O)C3CC3C(F)F)cc2cc1C1CCN(C2(C)COCC2O)CC1 (stereo not drawn) [Ex-2.56] | 1.58 nM |
| Cn1cc(N2CCC(C(=O)Nc3cc4cc(C5(C#N)CC56CC6)ccc4cn3)C2)cn1 (stereo not drawn) [Ex-2.76] | 26.3 nM |
| CC1C(C(=O)Nc2cc3cc(C4CCN(C5COC5)CC4)c(Cl)cc3cn2)C1(F)F (racemic) [Ex-1.6, Rac-N-(7-chloro-6-(1-(oxetan-3-yl)piperidin-4-yl)isoquinolin-3-yl)-2,2-difluoro-3-methylcyclopropane-1-carboxamide] | 1.86 nM |
| O=C(Nc1cc2cc(C3CCN(C4COC4)CC3)c(Cl)cc2cn1)C1CC12CCC2 (racemic) [Ex-1.14, Rac-N-(7-chloro-6-(1-(oxetan-3-yl)piperidin-4-yl)isoquinolin-3-yl)spiro[2.3]hexane-1-carboxamide] | 1.35 nM |
| CC1(C)CCC(C(=O)Nc2cc3cc(C4CCC(N5CCC(F)C5)CC4)c(Cl)cc3cn2)CO1 (single isomer, unassigned) [Ex-5.21, N-(7-chloro-6-(4-(3-fluoropyrrolidin-1-yl)cyclohexyl)isoquinolin-3-yl)-6,6-dimethyltetrahydro-2H-pyran-3-carboxamide] | 3630 nM |
| CC1(N2CCC(c3cc4cc(NC(=O)C5CC56CCC6)ncc4cc3Cl)CC2)COCC1O (single isomer, unassigned) [Ex-4.7, N-(7-chloro-6-(1-(4-hydroxy-3-methyltetrahydrofuran-3-yl)piperidin-4-yl)isoquinolin-3-yl)spiro[2.3]hexane-1-carboxamide] | 0.0813 nM |
| CC1(N2CCC(c3cc4cc(NC(=O)C5CC5c5cccs5)ncc4cc3Cl)CC2)COCC1O (single isomer, unassigned) [Ex-4.60, N-(7-chloro-6-(1-(4-hydroxy-3-methyltetrahydrofuran-3-yl)piperidin-4-yl)isoquinolin-3-yl)-2-(thiophen-2-yl)cyclopropane-1-carboxamide] | 0.0813 nM |
| CC1(N2CCC(c3cc4cc(NC(=O)C5CCC6(CCC6)OC5)ncc4cc3Cl)CC2)COCC1O (single isomer, unassigned) [Ex-4.24, N-(7-chloro-6-(1-(4-hydroxy-3-methyltetrahydrofuran-3-yl)piperidin-4-yl)isoquinolin-3-yl)-5-oxaspiro[3.5]nonane-7-carboxamide] | 0.692 nM |
| CC1(N2CCC(c3cc4cc(NC(=O)C5CC5c5cncnc5)ncc4cc3Cl)CC2)COCC1O (single isomer, unassigned) [Ex-4.35, N-(7-chloro-6-(1-(4-hydroxy-3-methyltetrahydrofuran-3-yl)piperidin-4-yl)isoquinolin-3-yl)-2-(pyrimidin-5-yl)cyclopropane-1-carboxamide] | 0.692 nM |
| O=C(Nc1cc2cc(C3CCC(N4CC(F)C4)CC3)c(Cl)cc2cn1)C1CC1c1ccccn1 (single isomer, unassigned) [Ex-5.1, (1R,2R or 1S,2S)-N-(7-chloro-6-((cis or trans)-4-(3-fluoroazetidin-1-yl)cyclohexyl)isoquinolin-3-yl)-2-(pyridin-2-yl)cyclopropane-1-carboxamide] | 52.5 nM |
| CC1(C)CCC(C(=O)Nc2cc3cc(C4CCN(C5(C)COCC5O)CC4)c(Cl)cc3cn2)CO1 (single isomer, unassigned) [Ex-4.25, N-(7-chloro-6-(1-(4-hydroxy-3-methyltetrahydrofuran-3-yl)piperidin-4-yl)isoquinolin-3-yl)-6,6-dimethyltetrahydrofuran-2H-pyran-3-carboxamide] | 0.776 nM |
| N#CC1(c2ccc3cnc(NC(=O)C4CC(OC(F)F)C4)cc3c2)CC12CC2 (single isomer, unassigned) [Ex-2.6] | 9.12 nM |
| CC1(N2CCC(c3cc4cc(NC(=O)C5CCC5C#N)ncc4cc3Cl)CC2)COCC1F (stereo not drawn) [Ex-2.94] | 0.0813 nM |
| Cc1cc2cnc(NC(=O)C3CCOC(C)(C)C3)cc2cc1C1CCN(C2(C)COCC2O)CC1 (stereo not drawn) [Ex-2.50] | 7.41 nM |

Now from value to compound:

| IC50 | SMILES |
| --- | --- |
| 0.0813 nM | CC1(C)CC(C(=O)Nc2cc3cc(C4CCN(C5(C)COCC5F)CC4)c(Cl)cc3cn2)CCO1 (single isomer, unassigned) [Ex-6.37, N-(7-chloro-6-(1-(4-fluoro-3-methyltetrahydrofuran-3-yl)piperidin-4-yl)isoquinolin-3-yl)-2,2-dimethyltetrahydro-2H-pyran-4-carboxamide] |
| 6.46 nM | CC1(N2CCC(c3cc4cc(NC(=O)C5CC56CCOCC6)ncc4cc3Cl)CC2)CCOCC1F (single isomer, unassigned) [Ex-12.2, N-(7-chloro-6-(1-((3R,4R or 3S,4S)-3-fluoro-4-methyltetrahydro-2H-pyran-4-yl)piperidin-4-yl)isoquinolin-3-yl)-6-oxaspiro[2.5]octane-1-carboxamide] |
| 1.62 nM | N#CC1(c2ccc3cnc(NC(=O)C4CC45CCOCC5)cc3c2)CC12CC2 (single isomer, unassigned) [Ex-18.12, (R or S)-N-(6-((R or S)-1-cyanospiro[2.2]pentan-1-yl)isoquinolin-3-yl)-6-oxaspiro[2.5]octane-1-carboxamide] |
| 0.178 nM | Cn1cc(C2CC2C(=O)Nc2cc3cc(C4CCN(C5(C)COCC5F)CC4)c(Cl)cc3cn2)cn1 (single isomer, unassigned) [Ex-6.31, N-(7-chloro-6-(1-(4-fluoro-3-methyltetrahydrofuran-3-yl)piperidin-4-yl)isoquinolin-3-yl)-2-(1-methyl-1H-pyrazol-4-yl)cyclopropane-1-carboxamide] |
| 0.813 nM | CC1COCC1(C)N1CCC(c2cc3cc(NC(=O)C4CC45CCOCC5)ncc3cc2Cl)CC1 (single isomer, unassigned) [Ex-6.9, N-(7-chloro-6-(1-(3,4-dimethyltetrahydrofuran-3-yl)piperidin-4-yl)isoquinolin-3-yl)-6-oxaspiro[2.5]octane-1-carboxamide] |
| 2.4 nM | Cc1cc2cnc(NC(=O)C3CC34CCOC4)cc2cc1C1CCN(C2(C)COCC2F)CC1 (single isomer, unassigned) [Ex-15.9, N-(6-(1-(4-fluoro-3-methyltetrahydrofuran-3-yl)piperidin-4-yl)-7-methylisoquinolin-3-yl)-5-oxaspiro[2.4]heptane-1-carboxamide] |
| 0.282 nM | CCC1C(C(=O)Nc2cc3cc(C4CCC(N5CC(F)C5)CC4)c(Cl)cc3cn2)C1c1cnn(C)c1 (single isomer, unassigned) [Ex-11.7, N-(7-chloro-6-(4-(3-fluoroazetidin-1-yl)cyclohexyl)isoquinolin-3-yl)-2-ethyl-3-(1-methyl-1H-pyrazol-4-yl)cyclopropane-1-carboxamide] |
| 4.17 nM | O=C(Nc1cc2cc(C3CCN(C4CS(=O)(=O)C4)CC3)c(Cl)cc2cn1)C1CC1 [Ex-13.5] |
| 0.977 nM | CC1(N2CCC(c3cc4cc(NC(=O)C5CC5c5ccccn5)ncc4cc3Cl)CC2)CCOC1 (single isomer, unassigned) [Ex-6.34, N-(7-chloro-6-(1-(3-methyltetrahydrofuran-3-yl)piperidin-4-yl)isoquinolin-3-yl)-2-(pyridin-2-yl)cyclopropane-1-carboxamide] |
| 24 nM | CC1(C)CC1(C#N)c1ccc2cnc(NC(=O)C3CC3)cc2c1 (single isomer, unassigned) [Ex-18.3, (R or S)-N-(6-(1-cyano-2,2-dimethylcyclopropyl)isoquinolin-3-yl)cyclopropanecarboxamide] |
| 3.8 nM | O=C(Nc1cc2cc(C3CCC(N4CC(F)C4)CC3)c(Cl)cc2cn1)C1CC12CCOCC2 (single isomer, unassigned) [Ex-11.6, N-(7-chloro-6-(4-(3-fluoroazetidin-1-yl)cyclohexyl)isoquinolin-3-yl)-6-oxaspiro[2.5]octane-1-carboxamide] |
| 3.39 nM | COC1COCC1N1CCC(c2cc3cc(NC(=O)C4CC45CCOCC5)ncc3cc2Cl)CC1 (single isomer, unassigned) [Ex-6.53, N-(7-chloro-6-(1-(4-methoxytetrahydrofuran-3-yl)piperidin-4-yl)isoquinolin-3-yl)-6-oxaspiro[2.5]octane-1-carboxamide] |
